The source made the active and inactive calls. The rule behind the calls is not given here.
target: Methyl-CpG-binding domain protein 2 (Homo sapiens) (UniProt Q9UBB5); test: inhibitors of MBD2 binding to methylated DNA, dose response, biochemical, TR-FRET, DNA-binding domain, late stage (AID 1053169); settings: TR-FRET MBD2-DBD binding to methylated oligonucleotide
Sequence (Q9UBB5 whole entry, looked up, the tested form may be a part): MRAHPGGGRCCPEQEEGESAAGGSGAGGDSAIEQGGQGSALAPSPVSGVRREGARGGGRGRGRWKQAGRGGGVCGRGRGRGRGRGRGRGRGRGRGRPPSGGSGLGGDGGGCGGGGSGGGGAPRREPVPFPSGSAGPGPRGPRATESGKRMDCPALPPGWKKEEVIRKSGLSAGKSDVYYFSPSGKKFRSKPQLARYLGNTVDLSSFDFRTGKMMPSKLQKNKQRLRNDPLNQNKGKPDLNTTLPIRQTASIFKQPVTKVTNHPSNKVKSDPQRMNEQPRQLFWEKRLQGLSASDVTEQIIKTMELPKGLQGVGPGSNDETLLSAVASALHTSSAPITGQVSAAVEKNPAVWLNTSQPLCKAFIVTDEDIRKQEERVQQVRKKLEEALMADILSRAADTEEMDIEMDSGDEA

Structure (SMILES) | IC50
COc1ccc(NC(=O)CN2CCN(c3ccccc3C)CC2)cc1 | > 43.8 µM (inactive)
CC(C)C(=O)Nc1nnc(SCC(=O)NC2CCCC2)s1 | > 43.8 µM (inactive)
CCc1cccc(OCC(=O)Nc2ccc(S(=O)(=O)Nc3ccccn3)cc2)c1 | > 43.8 µM (inactive)
COc1ccc(C(=O)N2CCC(C(=O)Nc3ccc(C)cc3)CC2)cc1 | > 43.8 µM (inactive)
COc1ccc(NC(=O)Cn2cc(C(C)=O)c3ccccc32)cc1 | > 43.8 µM (inactive)
O=C(CSc1nc(-c2ccccc2)c(-c2ccccc2)o1)N1CCOCC1 | > 43.8 µM (inactive)
CCCCn1c(NC(C)CC)nc2c1c(=O)[nH]c(=O)n2C (stereo not given) | > 43.8 µM (inactive)
COc1ccc(NC(=O)COC(=O)CCc2ccc(S(=O)(=O)N3CCOCC3)cc2)cc1Cl | > 43.8 µM (inactive)
CCOC(=O)c1oc2ccc(CNC(C)(C)C)c(Cl)c2c1C | > 43.8 µM (inactive)
CCOC(=O)c1ccc(NC(=O)COc2ccc(CNCCO)cc2OCC)cc1 | > 43.8 µM (inactive)
COc1ccccc1C(=O)COC(=O)c1ccc(N(C)C)cc1 | > 43.8 µM (inactive)
CCOc1ccc(S(=O)(=O)N2CCCC(C(=O)NCC3CCCO3)C2)cc1Cl (stereo not given) | > 43.8 µM (inactive)

The remaining lines, values ahead:

IC50 | Structure (SMILES)
> 43.8 µM (inactive) | O=C(Nc1ccc(OCc2ccccc2)cc1)c1ccccc1
> 43.8 µM (inactive) | O=C(CSc1ccccn1)Nc1ccc(N2CCOCC2)cc1
> 43.8 µM (inactive) | CSc1ccc(OC2CCCCC2NS(=O)(=O)c2ccccc2)cc1 (stereo not given)
> 43.8 µM (inactive) | Cc1cc(C)n2nc(CC(=O)NCc3ccc(F)cc3)nc2n1
> 43.8 µM (inactive) | CSc1ccc(OC2CCCCC2NS(=O)(=O)c2ccc(Cl)cc2)cc1 (stereo not given)
> 43.8 µM (inactive) | CC(C)n1nc(C(=O)Nc2nc3ccccc3[nH]2)c2ccccc2c1=O
> 43.8 µM (inactive) | Cc1ccc(Cl)cc1N1CCN(S(=O)(=O)c2ccc3c(c2)NC(=O)C(C)C(=O)N3)CC1 (stereo not given)
> 43.8 µM (inactive) | CC(=O)N(c1ccccc1)c1nc(/C=C/C(=O)Nc2c(C)cc(C)cc2C)cs1

From PubChem BioAssay AID1053169 (The Scripps Research Institute Molecular Screening Center, 2014)
